# Key:
# [1] = tested on: IL23-induced rat otitis model; test: In vivo pharmacodynamics in IL23-induced rat otitis model (ear thickening); set-up: species or system SD rats; conditions: 10 mg/kg, gavage, QD
# Excerpt: To evaluate the in vivo efficacy of the compounds in an IL23-induced rat otitis model.
# SD rats, 6-8 weeks old, male, purchased from Jiangsu GemPharmatech Co., Ltd.
# • a. […]
# [2] = Pharmacokinetic determination in rats (IV); conditions: male, Sprague-Dawley (SD), rat, plasma, 1 mg/kg
# Experimental: SD rats were used as test animals to study the pharmacokinetic behavior of the compounds of the examples in the rats (plasma) after oral or IV administration.
# Preparation of intravenous drug: PBS
# The compounds of the examples were weighed and dissolved in this solution, vortexed, ultrasonicated for 5 min, and filtered through a 0.22 μm filter membrane to obtain colorless clear solutions with a concentration of 0.2 mg/mL.
# 3 SD rats/group, male were fasted overnight and then respectively administered IV at a dose of 1 mg/kg and a volume of 5 mL/kg.
# • Before administration and at 0.083 h, 0.25 h, 0.5 h, 1.0 h, 2.0 h, 4.0 h, 6.0 h, 8.0 h, and 24.0 h after administration (IV), 0.2 mL of blood was collected from the jugular vein, placed in an EDTA-2K test tube, and centrifuged at 6000 rpm for 6 min at 4° C. to separate plasma, which was stored at −20° C.; and the rats were fed 4 h after administration.
# 1) Acetonitrile (200 μL) was added to the plasma sample (50 μL) for precipitation, and the mixture was mixed and centrifuged at 4500 rpm for 15 min.
# (§2) 2) The treated supernatant solution was taken and subjected to LC/MS/MS to analyze the concentrations of the test compounds. LC/MS/MS analysis instrument: AB Sciex Triple Quad 6500+.
# • Liquid phase conditions: Shimadzu LC-30AD pump • Chromatographic column: HALO 90A PFP 2.7 μm 2.1×30 mm, mobile phase: liquid A: 5% acetonitrile aqueous solution (0.1% formic acid), and liquid B: an aqueous solution of 95% acetonitrile (0.1% formic acid) • Flow rate: 0.6 mL/min • Elution time: 0-2.0 min, the eluent was as follows:
# (§3) The main pharmacokinetic parameters were calculated using WinNonlin 8.1.
# [3] = Pharmacokinetic determination in beagle dogs (IV); conditions: male, dog, plasma, 0.2 mg/kg
# Experimental: Beagle dogs were used as test animals to study the pharmacokinetic behavior of the compounds of the examples in the rats (plasma) after IV administration.
# 3 beagle dogs/group, male, from Yizheng Anlimao Biotechnology Co., Ltd.
# The compounds of the examples were weighed and dissolved in this solution, vortexed, ultrasonicated for 5 min, and filtered through a 0.22 μm filter membrane to obtain colorless clear solutions with a concentration of 0.1 mg/mL.
# 3 beagle dogs/group, male were fasted overnight and then respectively administered IV at a dose of 0.2 mg/kg and a volume of 2 mL/kg.
# 1) Acetonitrile (200 μL) was added to the plasma sample (50 L) for precipitation, and the mixture was mixed and centrifuged at 4500 rpm for 15 min.
# as §2
# Premier Peptide CSH C18 130A 1.7 μm 2.1*100 mm Column, mobile phase: liquid A: 5% acetonitrile aqueous solution (0.1% formic acid), and liquid B: an aqueous solution of 95% acetonitrile (0.1% formic acid) • Flow rate: 0.6 mL/min • Elution time: 0-2.0 min, the eluent was as follows:
# as §3
# IL23R = biological target: T1, IL23R (Homo sapiens, UniProt Q5VWK5); test: Competing with IL23 for binding to IL23R (HTRF, IL23/IL23R binding assay kit); conditions: 2 hours incubation at room temperature
# T1 construct: Tag2 (identity not disclosed); purchased PerkinElmer 64BDPIL23PEH
# T1 sequence (Q5VWK5 24-355 limits assumed): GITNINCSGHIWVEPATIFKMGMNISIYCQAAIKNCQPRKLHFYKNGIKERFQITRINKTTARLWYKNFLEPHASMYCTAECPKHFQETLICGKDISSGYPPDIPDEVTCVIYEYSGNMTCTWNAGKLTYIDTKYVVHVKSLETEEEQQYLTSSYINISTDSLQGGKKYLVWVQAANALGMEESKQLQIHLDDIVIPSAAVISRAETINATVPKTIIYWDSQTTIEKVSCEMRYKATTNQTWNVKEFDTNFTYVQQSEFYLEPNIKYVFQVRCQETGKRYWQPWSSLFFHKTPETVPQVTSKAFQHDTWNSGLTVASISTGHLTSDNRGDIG
# Experimental: (§1) The compounds of the present disclosure were screened in IL23/IL23R BINDING ASSAY KITS (PerkinElmer Cat #64BDPIL23PEH). The screening of the compounds of the present disclosure was carried out by using a multi-well plate (suitable for HTRF determination). Generally, 2 μl of several compounds of the present disclosure and STANDARD SOLUTIONS in KIT were first respectively added to the wells of the multi-well plate. 4 μl of Tag1-IL23, 4 μl of Tag2-IL23R, and 10 μL of pre-mixed Anti-Tag1 Eu Cryptate Antibody and Anti-Tag2 d2 reagent were necessarily added to all the wells. The multi-well plate was protected from light by an opaque cover membrane, and the opaque cover membrane was then removed
# as §1, with “removed after 2 hours of incubation at room temperature. The signal value was read by an HTRF-compatible detection instrument to detect IC50 value.” for “removed”
# The inhibition rate was calculated as follows: […]
# By using log (inhibitor) vs. response—Variable slope (four parameters) in Graphpad, the data of HTRF experiment results were subjected to non-linear regression fitting to fit a curve and obtain the IC50 value.
# Solubility in PBS = assay type: physicochemical; conditions: PBS pH 7.4, room temperature
# Experimental: To study the solubility of the compounds in PBS.
# About 2 mg of the compound was weighed, an appropriate amount of a PBS solution was added, and the mixture was dissolved clear by ultrasonication for 10 seconds. No precipitation was found after standing at room temperature overnight.
smiles,measurement,setting,value
CC(=O)NCCCC[C@@H]1NC(=O)[C@H](Cc2c[nH]c3c(C)cccc23)NC(=O)[C@H]([C@@H](C)O)NC(=O)[C@H](CC(N)=O)NC(=O)[C@@H](NC(C)=O)C(C)(C)SSC(C)(C)[C@@H](C(=O)N[C@@H](Cc2ccc(OCCN)cc2)C(=O)N[C@@H](Cc2ccc3ccccc3c2)C(=O)NC2(C(=O)N[C@@H](CCC(=O)O)C(=O)N[C@@H](CC(N)=O)C(=O)N[C@@H](Cc3cccnc3)C(=O)N(C)CCNC(=O)CCOCCOCC[N+](C)(C)CCNC(=O)COCCOCCNC(=O)COCCOCCNC(=O)CC[C@H](NC(=O)CCCCCCCCCCCCCCC(=O)O)C(=O)O)CCC(F)(F)CC2)NC1=O [Example 1-16-1],Inhibition rate on Day 4 (ear thickening),[1],70.77%
same,AUC(0-inf),[2],47600 ng·h/mL
same,AUC(0-t),[2],46100 ng·h/mL
same,C0,[2],12600 ng/mL
same,MRT,[2],6.2 h
same,clearance,[2],0.35 mL/min/kg
same,AUC(0-inf),[3],76400 ng·h/mL
same,AUC(0-t),[3],68800 ng·h/mL
same,C0,[3],2750 ng/mL
same,MRT,[3],66.9 h
same,clearance,[3],0.04 mL/min/kg
same,IC50,IL23R,2.73 nM
same,solubility,Solubility in PBS,39.6 to 59.4 mg/mL

# Reference: patent publication US20260193294A1, “POLYPEPTIDE INHIBITOR, AND PREPARATION METHOD THEREFOR AND USE THEREOF” (SHANGHAI HANSOH BIOMEDICAL CO., LTD., priority 2022, published 2026)
